5 molecules from patent US20090144853A1, “Control of Gene Expression in Plants” (UNIVERSITY OF DURHAM, priority 2005, published 2009) can be followed below.

The test system of assay [1] is LRI-1 promoter. The assay is described as follows: GUS histochemical staining of LRI-1 promoter trap seedlings grown with hormones or hormone signalling inhibitors. The assay is classed as in vivo, Arabidopsis thaliana. As to the method: (§1) The expression of the GUS promoter trap was analysed over a developmental time course in uninfected Arabidopsis seedlings that had been grown aseptically on a synthetic growth medium. Prior to analysis, seeds of the transgenic line were surface sterilised by treatment with 70% (v/v) ethanol for 3 minutes and 10% (v/v) commercial bleach for 20 minutes. The seeds were then washed with water and grown on half-strength Murashige and Skoog medium (½MS), supplemented with 10 g/l sucrose. The seedlings were grown in the presence of continuous light at 25° C. Tissue localisation of the GUS enzyme activity was determined at intervals after germination by staining for up to 12 hours at 37° C. in 1 mM 5-bromo-4-chloro-3-indoyl-β-D-glucuronic acid (X-gluc), according to the method of Jefferson et al (1987, EMBO J. 6, 3901-3907), wherein the method was modified by the use of buffer comprising 100 mM sodium phosphate (pH 7.0), 10 mM EDTA, 0.1% (v/v) Triton X-100 and 1 mM potassium ferricyanide to inhibit diffusion of the reaction intermediate. This solution was known as GUS buffer. Excess chlorophyll was removed by soaking the stained tissues in 70% (v/v) ethanol.
(§2) In order to investigate the regulation of the LRI-1 promoter activity, seeds that were homozygous for the LRI-1 gene fusion were germinated aseptically on ½MS10 medium in the presence or absence of hormones. At 9 dpg, the seedlings were subsequently transferred to ½MS10 medium containing either hormones or inhibitors of hormone signalling. Hormone treatments used for the purposes of this invention included, but were not limited to: 0.25, 2.5 or 10 μM 1-naphthaleneacetic acid (NAA, a synthetic auxin); 0.25, 2.5 or 10 μM kinetin (a synthetic cytokinin); 10 or 100 μM silver nitrate (an inhibitor of ethylene signalling); 10 or 100 μM 1-aminocyclopropane-1-carboxylic acid (ACC, a precursor of ethylene); 10 or 100 μM naphthylphthalamic acid (NPA) or 10 μM triiodobenozoic acid (TIBA). NPA and TIBA are inhibitors of polar auxin transport. After growth on medium in the presence or absence of hormones, the seedlings were transferred to a solution of GUS buffer and analysed for GUS activity (indicated by the presence of a blue precipitate).

Assay [2] relates to AtPRB2 promoter. The assay can be described thus: GUS activity of 2.47 kb AtPRB2 promoter fragment::GUS transgenic seedlings treated with exogenous auxin. Particulars: 9 dpg on ½MS10, then 2.5 μM for a further 1, 3 or 5 days; except at the root tips. The class given is in vivo, Arabidopsis thaliana. An excerpt: To confirm that the 5′ flanking sequence upstream of the left T-DNA was responsible for the observed GUS activity in line LRI-1, the sequence was cloned and fused to each of the gusA and the GFP reporter genes respectively. The technique of PCR was used to amplify a 1.47 kb genomic fragment immediately upstream of the left T-DNA border. This 1.47 kb fragment was cloned upstream of the respective reporter genes and subsequently introduced into Arabidopsis thaliana plants by the dipping method of Agrobacterium tumefaciens-mediated transformation (Clough and Bent 1998 Plant J. 16, 735-743). In order to determine whether the promoter activity of the cloned sequence pLRI-1 was similar to the promoter region upstream of gene AtPRB2, a 2.47 kb fragment immediately upstream of the gene was cloned. In addition, shorter fragments which were 1 kb, 0.5 kb and 0.2 kb upstream of AtPRB2 were cloned and fused to the gusA reporter gene in the binary vector pΔGUSCIRCE (Casson et al, 2002 Plant Cell 14, 1705-1721), before introduction into plants by Agrobacterium-mediated transformation.
Using a similar approach, the activity of the 2.47 kb AtPRB2 gene fragment was determined in transgenic Arabidopsis lines. […]

The test system of assay [3] is Arabidopsis thaliana seedlings. The assay can be described thus: Root development of LRI-1 seedlings grown with hormones or hormone signalling inhibitors. The assay is classed as in vivo. The procedure: as §1, §2
The mark [4] stands for this setting: 9 days without compound, then 10 μM for a further 2 days.
The mark [5] stands for this setting: grown on 2.5 μM or 10 μM for up to 9 days.
Where [6] appears, read: transferred to compound after growth on hormone-free medium, higher concentrations.

Regarding `NC1(C(=O)O)CC1` [ACC, 1-aminocyclopropane-1-carboxylic acid], in assay [1] (germinated and grown in presence of 10 μM for up to 9 dpg), the “level of GUS activity” value is listed as “reduction in the level of GUS activity”. In assay [1] (grown in presence of 100 μM, stronger expression at the base of lateral roots), the GUS activity result is given as “induction of GUS activity in the hypocotyl”.

On to `O=C(O)Cc1cccc2ccccc12` [NAA, 1-naphthaleneacetic acid], for which, in assay [1] (9 dpg on ½MS10, then transfer to 0.25, 2.5 or 10 μM NAA for 1, 3 or 5 days, except at the root tip), the “GUS activity in root” value was “strong GUS activity throughout the root”. In addition, the “GUS activity in aerial parts” value in assay [1] (after transfer at 9 dpg, two lower concentrations of NAA tested) is reported as “No GUS activity was detected”. Besides, the GUS activity entry in assay [1] (seedlings germinated on ½MS10 in presence of NAA (0.25, 2.5 or 10 μM), most prominent at 10 μM) is given as “strong throughout the root of the seedling”. Moreover, the “LRI-1::GUS expression” value in assay [1] (seedlings treated with 2.5 μM exogenous auxin) is “induction of LRI-1::GUS expression throughout the Arabidopsis root”. Besides, the “AtPRB2::GUS activity” value in assay [2] is “strong induction of AtPRB2::GUS activity throughout the root”. Besides, the adventitious root development entry in assay [3] (after transfer at 9 dpg, 2.5 μM NAA) is on record as “developed adventitious roots on the hypocotyl”; in assay [3] (grown for 9 dpg in presence of auxin, roots GUS-positive), “adventitious roots developed from the shortened hypocotyl”. For the same molecule, the root elongation result in assay [3] (seedlings germinated on ½MS10 in presence of NAA, most prominent at 10 μM) is “dramatic reduction in root elongation”.

In the case of `O=C(O)c1cc(I)cc(I)c1I` [TIBA, triiodobenozoic acid], the “existing GUS activity at previously formed lateral roots” value in assay [1] (setting [4]) is “remained unaffected”. Moreover, the GUS activity result in assay [1] (grown 5 dpg in presence of 10 μM, some seedlings, at sites where lateral roots would normally emerge) is recorded as “localised but low level GUS activity”. Besides, in assay [3] (setting [4]), the “new lateral root formation” value is “inhibition of new lateral root formation”. For the same molecule, in assay [3] (germinated and grown 5 dpg in presence of 10 μM), the lateral root development result is “No lateral root development was observed”.

`c1coc(CNc2ncnc3[nH]cnc23)c1` [kinetin]: the GUS activity entry in assay [1] (setting [5]) is given as “detected as normal”; in assay [1] (setting [6]), “detectable as normal”. The lateral root formation result is listed as “no lateral root formation was observed” in assay [3] (setting [5]) and “reduction in lateral root formation” in assay [3] (setting [6]).

For the molecule `O=[N+]([O-])[O-].[Ag+]` [silver nitrate], the “GUS activity associated with the LRI-1 promoter” value in assay [1] (germination and growth for 3, 5 or 9 days in presence of 10 μM) is “reduction in GUS activity”.
